Read-outs that look alike come from different tables or passages of the source.
Legend:
Assay type in all cases: in vivo
[1] = test system: 2-spotted Spider Mite (Tetranychus urticae); experiment: Insecticidal test on 2-spotted spider mite, kidney bean leaf disc with eggs, hatchability of larvae after 6 days; conditions: 6 days after spraying
Method: Insecticidal Test on 2-spotted Spider Mite (Tetranychus urticae)
A plastic cup having a diameter of 8 cm was filled with water and covered by a lid with a hole having a diameter of 1 cm. Absorbent cotton was put on the top of the lid and dropped into water from the lid such that the absorbent cotton was always in a wet state due to a capillary phenomenon. A leaf disc having a diameter of 2 cm was prepared with primary leaves of kidney beans (cultivar: Green top) and placed on the aforementioned absorbent cotton. 4 adult female insects of Tetranychus urticae were inoculated thereon. Next day, the adult female insects were removed, and then the number of insect egg was examined. A liquid chemical which was prepared to the prescribed concentration was sprayed by using a vertical sprayer. After spraying, the resulting cup was allowed to stand in an isothermal chamber maintained at 25 degree centigrade. After 6 days from spraying, the number of hatched larvae that survived on the leaf disc was examined and the hatchability of larvae was calculated (two replications of one concentration per chemical).

[2] = test system: Small Brown Planthopper (Laodelphax striatellus); experiment: Insecticidal test on small brown planthopper, sprayed rice seedlings, mortality after 6 days
Method: Insecticidal Test on Small Brown Planthopper (Laodelphax striatellus)
A liquid chemical which was diluted and prepared to the prescribed concentration was sprayed on rice seedlings (cultivar: koshihikari), air-dried, and then 10 three-stage insects of Laodelphax striatellus were put into a glass test tube having a diameter of 3 cm and a height of 10 cm along with the seedlings. The test tube was cotton plugged. After 6 days from the treatment, the number of surviving insects was examined and the mortality was calculated (two replications of 10 insects per plot).

[3] = test system: Resistant Cotton Melon Aphid (Aphis gossypii)
[4] = test system: Tiger Moth (Trichoplusia ni); experiment: Insecticidal test on tiger moth, cabbage leaf dip, mortality after 6 days; conditions: 6 days after treatment
Method: Insecticidal Test on Tiger Moth (Trichoplusia ni)
Cut leaves of cabbages (cultivar: shiki-kaku) were immersed in a liquid chemical which was diluted and prepared to the prescribed concentration for 30 seconds, air-dried, and then put into a plastic vessel having a diameter of 9 cm. Each of 10 second-stage insects of Trichoplusia ni was inoculated and the resulting vessel was allowed to stand in an isothermal chamber maintained at 25 degree centigrade. After 6 days from the treatment, the number of surviving insects was examined and the mortality was calculated (two replications of 10 insects per plot).

[5] = test system: Green Peach Aphid (Myzus persicae)
[6] = Laodelphax striatellus, 144 h, 25 ppm, sprayed rice seedlings, 6 days after treatment
[7] = 100 ppm, foliar spray on cucumber, 5 days after spraying
[8] = 100 ppm, foliar spray on eggplant, 5 days after spraying
[9] = 250 ppm, foliar spray on cucumber, 5 days after spraying
[10] = 250 ppm, foliar spray on eggplant, 5 days after spraying
[11] = 3 ppm, foliar spray on cucumber, 5 days after spraying
[12] = 3 ppm, foliar spray on eggplant, 5 days after spraying
[13] = 3 ppm, sprayed rice seedlings, 6 days after treatment

In the case of milbemectin, the “Hatchability of larvae (%)” value ([1]; 5 ppm) is reported as 18%.
CCOc1ccc([Si](C)(C)CCCc2ccc(F)c(Oc3ccccc3)c2)cc1 [silafluofen] showed a mortality at 25 ppm [2, 6] of 95%.
For CCOc1ccc(C(C)(C)COCc2cccc(Oc3ccccc3)c2)cc1 [ethofenprox], the “Control rate (%)” value [3, 7] was 75%, the “Mortality (%)” value ([4]; 3 ppm) was 45% and the “Control rate (%)” value [5, 8] was 98%. For the same compound, the “Mortality (%)” value ([2]; 25 ppm, sprayed rice seedlings, 6 days after treatment) was 95%.
CC(C)N1C(=O)N(c2ccccc2)CS/C1=N\C(C)(C)C [buprofezin] gave a mortality at 25 ppm [2, 6] of 95%.
CC1=NNC(=O)N(/N=C/c2cccnc2)C1 [pymetrozine] was tested, and the “Control rate (%)” value [3, 7] was 95%, the “Control rate (%)” value [5, 8] was 96% and the mortality at 25 ppm [2, 6] was 95%.
With spinosad the “Mortality (%)” value ([4]; 0.1 ppm) was 60%.
COP(=O)(NC(C)=O)SC (centres unmarked) [acephate] was tested, and the “Control rate (%)” value [3, 9] was 0% and the “Control rate (%)” value [5, 10] was 97%.
CC(C)([CH2][Sn]([CH2]C(C)(C)c1ccccc1)([CH2]C(C)(C)c1ccccc1)[O][Sn]([CH2]C(C)(C)c1ccccc1)([CH2]C(C)(C)c1ccccc1)[CH2]C(C)(C)c1ccccc1)c1ccccc1 [fenbutatin oxide] was tested, and the “Hatchability of larvae (%)” value ([1]; 25 ppm) was 42%.
For CCCCCCCCCCCCC1=C(OC(C)=O)C(=O)c2ccccc2C1=O [acequinocyl], the “Hatchability of larvae (%)” value ([1]; 5 ppm) was 29%.
N#Cc1nn(-c2c(Cl)cc(C(F)(F)F)cc2Cl)c(N)c1[S+]([O-])C(F)(F)F (centres unmarked) [fipronil] gave a mortality at 0.5 ppm ([4]; Trichoplusia, foliar, 144 h, 0.5 ppm) of 55%.
In the case of CN(C(=O)c1cccc(NC(=O)c2ccccc2)c1)c1c(Br)cc(SC(F)(F)C(F)(F)C(F)(F)F)cc1Br [Compound 1480], the “Hatchability of larvae (%)” value ([1]; 50 ppm) is reported as 85%, the “Control rate (%)” value [3, 11] is reported as 3% and the “Mortality (%)” value ([4]; 0.5 ppm) is reported as 75%. For the same compound, the “Control rate (%)” value [5, 12] was 7% and the “Mortality (%)” value [2, 13] was 10%.
For CC[S+]([O-])c1c(C#N)nn(-c2c(Cl)cc(C(F)(F)F)cc2Cl)c1N (centres unmarked) [ethiprole], the “Control rate (%)” value [3, 7] was 96%, the “Control rate (%)” value [5, 8] was 98% and the mortality at 25 ppm [2, 6] was 90%.
In the case of COc1ccc(-c2ccccc2)cc1NNC(=O)OC(C)C [bifenazate], the “Hatchability of larvae (%)” value ([1]; 5 ppm) is reported as 60%.
For CC(C)(C)c1ccc(CSc2cnn(C(C)(C)C)c(=O)c2Cl)cc1 [pyridaben], the “Hatchability of larvae (%)” value ([1]; 2 ppm) was 48%.
For Cc1cc(C(F)(C(F)(F)F)C(F)(F)F)cc(C)c1NC(=O)c1cccc(N(C)C(=O)c2cccc(F)c2)c1F [Compound 1219], the “Hatchability of larvae (%)” value ([1]; 50 ppm) was 80%, the “Control rate (%)” value [3, 11] was 15% and the “Mortality (%)” value ([4]; 0.5 ppm) was 65%. For the same compound, the “Control rate (%)” value [5, 12] was 17% and the “Mortality (%)” value [2, 13] was 10%.
CN(C(=O)c1ccccc1F)c1cccc(C(=O)N(C)c2c(Br)cc(SC(F)(F)C(F)(F)C(F)(F)F)cc2Br)c1 [Compound 1617] was tested, and the “Hatchability of larvae (%)” value ([1]; 50 ppm) was 78%, the “Control rate (%)” value [3, 11] was 5% and the “Mortality (%)” value ([4]; 0.5 ppm) was 75%. For the same compound, the “Control rate (%)” value [5, 12] was 0% and the “Mortality (%)” value [2, 13] was 5%.
In the case of CNC(=O)ON=C(C)SC [methomyl], the “Control rate (%)” value [3, 9] is reported as 10% and the “Control rate (%)” value [5, 10] is reported as 96%.
Work on COP(=S)(OC)Oc1ccc([N+](=O)[O-])c(C)c1 [fenitrothion] yielded a mortality at 100 ppm ([2]; Laodelphax striatellus, 144 h) of 85%.
With CCC(C)(C)C(=O)OC1=C(c2ccc(Cl)cc2Cl)C(=O)OC12CCCCC2 [spirodiclofen] the “Hatchability of larvae (%)” value ([1]; 3 ppm) was 50%.
With CN(C(=O)c1ccccc1)c1cccc(C(=O)Nc2c(Br)cc(SC(F)(F)C(F)(F)C(F)(F)F)cc2Br)c1 [Compound 1126] the “Hatchability of larvae (%)” value ([1]; 50 ppm) was 73%, the “Control rate (%)” value [3, 11] was 3% and the “Mortality (%)” value ([4]; 0.5 ppm) was 70%. The “Control rate (%)” value [5, 12] was 0% and the “Mortality (%)” value [2, 13] was 10%.
CN/C(=N/CC1CCOC1)N[N+](=O)[O-] (centres unmarked) [dinotefuran] was tested, and the “Control rate (%)” value ([3]; in vivo) was 98%, the mortality at 3 ppm ([4]; Trichoplusia, foliar, 144 h, 3 ppm) was 40% and the “Control rate (%)” value ([5]; in vivo) was 99%. The mortality at 5 ppm ([2]; Laodelphax striatellus, 144 h, 5 ppm, sprayed rice seedlings, 6 days after treatment) was 95%.
With N#CCNC(=O)c1cnccc1C(F)(F)F [flonicamid] the “Control rate (%)” value [3, 7] was 97%, the “Control rate (%)” value [5, 8] was 97% and the “Mortality (%)” value ([2]; 20 ppm, sprayed rice seedlings, 6 days after treatment) was 95%.
With CCOc1cc(C(C)(C)C)ccc1C1COC(c2c(F)cccc2F)=N1 (centres unmarked) [etoxazol] the “Hatchability of larvae (%)” value ([1]; 0.1 ppm) was 33%.
